The subject of experiment [1] is mouse IL-4/IL-13-induced M2 polarization. The experiment in a line: in vitro titration assay of IL-4/IL-13-induced M2 polarization. In kind it is cell-based. As to conditions: at 1 μM. From the text: Antibodies and flow cytometry: All antibodies used for flow cytometry were purchased from Biolegend, unless indicated. For surface staining, murine cells were stained with the following antibodies: APC-CD45.2 (109814, 1:200), PE/Cy7-CD4 (100528, 1:300), Percp/Cy5.5-CD11b (101228, 1:200), BV421-F4/80 (123137, 1:200), APC/Cy7-CD11C (117324, 1:200), PE-IL-411.a (144803 1:100), AF488-CD206 (141710, 1:100), AF700-MHCII (107622, 1:300), PB-Ly6C (128014, 1:200), PE/Cy7-Ly-6G (127617, 1:300), PE-FcεRIα (134307, 1:200), AF488-ckit (105815, 1:200), APC-eFluor780-CD45.1 (47-0453-82, eBioscience, 1:200) and PE-Siglec-F (562068, BD Biosciences, 1:200). Human cells were stained with PE/Cy7-CD14 (301814,1:100), AF488-CD206 (321114, 1:50) and APC-CD68 (333810, 1:100). […]
Cell preparation and in vitro cultures: Pancreatic leukocytes were isolated using collagenase digestion method described previously for flow cytometry analysis (Xue, J., et al. Aryl hydrocarbon receptor regulates pancreatic IL-22 production and protects mice from acute pancreatitis. Gastroenterology 143, 1670-1680 (2012)). […] Isolated PSCs were ready for use after the second passage. […] On day 6, human macrophages are ready for use (Vijayan, D. Isolation and differentiation of monocytes-macrophages from human blood. Methods Mol. Biol. 844, 183-187 (2012)). […]

In another experiment the test system is human macrophages. Description: M2 polarization of human macrophages by hPSC conditioned medium. The conditions noted are these: hPSC_CM pretreated with 1 μM, 24 h; FIG. 6G. In kind it is cell-based. The method, then:
IL-4/IL-13-blocking peptide (IL4/13BP i.p., 50 μg per mouse, 5 days per week) was administrated to mice 2 weeks after starting CP induction and mice were killed as previous after 4 weeks of caerulein injections. […] (unpaired two-tailed Student's t-test). […] Scale bar, 200 μm. […] Scale bar: 50 μm. FIG. 6D and FIG. 6E show RT-PCR analysis of α-SMA and Col1α1 (Collagen1A1) gene expression in the pancreas of indicated mice. Means±s.e.m. (unpaired two-tailed Student's t-test). […] Means±s.e.m. (unpaired two-tailed Student's t-test). In FIG. 6G human macrophages as above were cultured with control medium (Con), conditioned medium from hPSCs (hPSC_CM) or hPSC_CM pretreated with 1 μM IL4/13BP (hPSC_CM+BP) for 24h. Expression of CD206 (% CD206^+ macrophages) was analysed using flow cytometry.
Antibodies and flow cytometry: All antibodies used for flow cytometry were purchased from Biolegend, unless indicated. […]
Cell preparation and in vitro cultures: Pancreatic leukocytes were isolated using collagenase digestion method described previously for flow cytometry analysis (Xue, J., et al. Aryl hydrocarbon receptor regulates pancreatic IL-22 production and protects mice from acute pancreatitis. Gastroenterology 143, 1670-1680 (2012)). […] Isolated PSCs were ready for use after the second passage. […]

Experiment [2] relates to caerulein-induced CP mice. The experiment in a line: caerulein-induced chronic pancreatitis (CP) mouse model. The conditions noted are these: for pancreas fibrosis (relative pancreas weight, H&E, Trichrome, α-SMA, Collagen1A1) / alternative activation of pancreatic macrophages (CD206 expression, flow cytometry): established CP; for pancreas fibrosis (relative pancreas weight, H&E, Trichrome, α-SMA, Collagen1A1): FIG. 6A-6E; for alternative activation of pancreatic macrophages (CD206 expression, flow cytometry): FIG. 6F. Format: in vivo. The source says: As indicated herein, agents that inhibit IL-4/IL-13 receptor function such as CRSM53567 will have benefit in several fibrosis and cancer diseases. In this design a commonly used model to cause chronic pancreatitis in rodents was created. In this model, the animal is given the cholecystokinin analogue, Caerulein, as a set of 6 intraperitoneal injections over a day repeated 3 times a week for 4 weeks. […] CD206 is a marker of the type II macrophage while MHCII is highly expressed on type I macrophage.
Pancreatitis model and treatment: AP was induced with caerulein injection in mice as previously described (Xue, J., et al. Aryl hydrocarbon receptor regulates pancreatic IL-22 production and protects mice from acute pancreatitis. Gastroenterology 143, 1670-1680 (2012); Xue, J. & Habtezion, A. Carbon monoxide-based therapy ameliorates acute pancreatitis via TLR4 inhibition. J. Clin. Invest. 124, 437-447 (2014)). CP was induced by repetitive caerulein injections (Lerch, M. M. & Gorelick, F. S. Models of acute and chronic pancreatitis. Gastroenterology 144, 1180-1193 (2013); Treiber, M. et al. Myeloid, but not pancreatic, RelA/p65 is required for fibrosis in a mouse model of chronic pancreatitis. Gastroenterology 141, e1471-e1477 (2011)). In brief, mice were given six hourly intraperitoneal (i.p.) injections of 50-μg kg^−1 body weight caerulein (Sigma-Aldrich) 3 days per week, for a total of 4 weeks. Mice were then killed and analyzed 3 days after the last caerulein injection. For blocking peptide study all mice were given caerulein injection 3 days per week for a total of 4 weeks as above, and 2 weeks following start of the caerulein injection mice were either given vehicle control (PBS) or IL-4/IL-13-blocking peptide ([…], 100 μl daily for 5 days per week×2 weeks) until being killed 4 weeks and 3 days later as above.
Histology and immunofluorescence: Mice were killed by CO2 inhalation, and then their pancreata were rapidly removed. Pancreas pieces were immediately fixed in 10% formalin or frozen in Tissue-Tek OCT compound. Fixed tissues were sectioned and used for haemotoxylin and eosin and Trichrome staining (performed in the Histo-Tec Laboratory). Frozen tissues were also sectioned for immunofluorescence staining with indicated antibodies and analyzed with confocal microscopy.
Antibodies and flow cytometry: All antibodies used for flow cytometry were purchased from Biolegend, unless indicated. For surface staining, murine cells were stained with the following antibodies: APC-CD45.2 (109814, 1:200), PE/Cy7-CD4 (100528, 1:300), Percp/Cy5.5-CD11b (101228, 1:200), BV421-F4/80 (123137, 1:200), APC/Cy7-CD11C (117324, 1:200), PE-IL-411.a (144803 1:100), AF488-CD206 (141710, 1:100), AF700-MHCII (107622, 1:300), PB-Ly6C (128014, 1:200), PE/Cy7-Ly-6G (127617, 1:300), PE-FcεRIα (134307, 1:200), AF488-ckit (105815, 1:200), APC-eFluor780-CD45.1 (47-0453-82, eBioscience, 1:200) and PE-Siglec-F (562068, BD Biosciences, 1:200). Human cells were stained with PE/Cy7-CD14 (301814,1:100), AF488-CD206 (321114, 1:50) and APC-CD68 (333810, 1:100). For intracellular cytokine staining, cells were activated with phorbol myristate acetate (50 ng ml^−1) and ionomycin (1 μg ml^−1), in the presence of brefeldin A (10 μg ml^−1, eBioscience) for 4h at 37° C. before staining. The cells were then fixed and permeabilized using the eBioscience kit following the manufacturer's guidelines. APC-IL10 (554468, 1:100) and isotype control (556924, 1:100) from BD Biosciences were used for intracellular staining. For intracellular TNFα staining, cells were incubated with or without lipopolysaccharide (100 ngml-1, InvivoGen) in the presence of brefeldin A before surface-staining. PE-TNFα (554419, 1:200) and isotype control (554685, 1:200) from BD Biosciences were used.
Quantitative RT-PCR: Th pancreas or cells were lysed with Trizol reagent (Invitrogen) for total RNA preparation according to the manufacturer's instructions. […]

A further experiment relates to E0771 tumors. Description: syngeneic E0771 tumor model with radiation therapy. The conditions noted are these: for response to radiation therapy (tumor volume): 50 μg in 100 μL PBS daily injection combined with RT 16 Gy, versus RT alone, FIG. 8A. In kind it is in vivo, C57BL/6 mice. The method, then:
Syngeneic E0771 tumors were implanted in the lower mammary gland of C57BL/6 mice and allowed to grow to approximately […]. Mice were then enrolled on study (n=5/group) and treated with either PBS (Control), IL4/13 blocking peptide CSRM53567 (50 μg in 100 μL PBS, daily injection), radiation therapy (RT) alone (16 Gy) or combination of CSRM53567 peptide and RT. Mice were measured at the indicated time points with digital calipers and the resulting volume was calculated. ** p<0.01. […] There were fewer CD4+ T cells and more CD8+ T cells as a percentage of the CD45+ leukocytes in the tumors that received radiation therapy and the IL4/13 blocking peptide compared to radiation alone. […] The cytokines and CD45+ cells were all harvested at end point which is about two weeks post-RT.

Setting [3] is: chronic pancreatitis mouse model, preliminary results, FIG. 1.
[4] abbreviates: i.p. 50 μg per mouse, 5 days per week, started 2 weeks after starting CP induction.
Where [5] appears, read: i.p. 50 μg per mouse, 5 days per week, started 2 weeks after starting CP induction, listed as IL-4/13-blocking peptide.
The mark [6] stands for this setting: RT plus peptide compared to radiation alone, about two weeks post-RT.

Entries after “also recorded” stand apart in the source; their conditions may differ.

Turning to “TYR-CYS-ASP-ASP-PHE-VAL-GLY-SER-PHE-ASP-CYS-TYR (YCDDFVGSFDCY) [CSRM53567]”, in experiment [1], the “mouse IL-4/IL-13-induced M2 polarization and CD206 expression” value is given as “significantly decreased”. Further, the “hPSC-mediated M2 polarization of human macrophages (% CD206+ macrophages)” value in the experiment on human macrophages was “capable of inhibiting”. The “macrophages in the tissue (FACS)” value in experiment [2] (chronic pancreatitis mouse model, caerulein 3 times a week for 4 weeks, preliminary results, FIG. 1B) is given as “decreases; also recorded: reduces”. Moreover, in experiment [2] (setting [3]), the fibrosis result is given as “decreased fibrosis; also recorded: reduces” and the “tissue volume / pancreas shrinkage” value was “increase; also recorded: preventing pancreas shrinkage”. Also, in experiment [2] (setting [4]), the “pancreas fibrosis (relative pancreas weight, H&E, Trichrome, α-SMA, Collagen1A1)” value is listed as “limited pancreas fibrosis” and the “alternative activation of pancreatic macrophages (CD206 expression, flow cytometry)” value is “blockade of alternative activation”. Also, in experiment [2] (setting [5]), the “pancreas fibrosis (relative pancreas weight, H&E, Trichrome, α-SMA, Collagen1A1)” value was “ameliorated” and the “alternative activation of pancreatic macrophages (CD206 expression, flow cytometry)” value is “decreased”. In addition, in experiment [2] (i.p. 50 μg per mouse, 5 days per week, started 2 weeks after starting CP induction, FIG. 6), the “established CP” value is listed as “ameliorates established CP”. Besides, the “response to radiation therapy (tumor volume)” value in the experiment on E0771 tumors is recorded as “enhances response to radiation therapy”. In addition, the “response to radiation therapy (tumor volume)” value in the experiment on E0771 tumors (listed as IL-4/IL-13 blocking peptide) is on record as “enhances the response to radiation therapy”. Besides, the “number of CD8+ T cells post radiation therapy” value in the experiment with E0771 tumors (FIG. 8B) is recorded as “enhances the number of CD8+ T cells”. In the experiment on E0771 tumors (setting [6]), the “CD4+ T cells as a percentage of the CD45+ leukocytes in the tumors” value is “fewer”, the “CD8+ T cells as a percentage of the CD45+ leukocytes in the tumors” value is recorded as “more” and the “absolute number of CD45+ leukocytes” value is “remained roughly the same”.

The values are drawn from patent US11547738B2, “Compositions and methods for treating fibrosis” (Cedars-Sinai Medical Center, priority 2014, dated 2023).
